Measurements from ChEMBL document CHEMBL3046453, “Abdominal color of the Asian citrus psyllid, Diaphorina citri, is associated with susceptibility to various insecticides” (2013).
Converted amounts (≈) assume the structure as drawn.

Assays:
Type in all cases: functional
Details in all cases: for LC50: Diaphorina citri, 48 h
Diaphorina citri [1] = assay: Insecticidal activity against blue/green Diaphorina citri in citrus leaf assessed as mortality after 48 hr by leaf-dip petridish bioassay method
Diaphorina citri [2] = assay: Insecticidal activity against orange/yellow Diaphorina citri in citrus leaf assessed as mortality after 48 hr by leaf-dip petridish bioassay method
Diaphorina citri [3] = assay: Insecticidal activity against gray/brown Diaphorina citri in citrus leaf assessed as mortality after 48 hr by leaf-dip petridish bioassay method

CCOP(=S)(OCC)Oc1nc(Cl)c(Cl)cc1Cl [CHLORPYRIFOS]
LC95 (Diaphorina citri [1]): 12.12 µg/mL (≈ 34.6 µM)
LC50 (Diaphorina citri [1]): 3.93 µg/mL (≈ 11.2 µM)
LC95 (Diaphorina citri [2]): 2.67 µg/mL (≈ 7.62 µM)
LC50 (Diaphorina citri [2]): 0.92 µg/mL (≈ 2.62 µM)
LC95 (Diaphorina citri [3]): 11.62 µg/mL (≈ 33.1 µM)
LC50 (Diaphorina citri [3]): 3.62 µg/mL (≈ 10.3 µM)

CC1(C)C(C(=O)OC(C#N)c2cccc(Oc3ccccc3)c2)C1(C)C (centres undefined) [FENPROPATHRIN]
LC95 (Diaphorina citri [1]): 29.21 µg/mL (≈ 83.6 µM)
LC50 (Diaphorina citri [1]): 0.85 µg/mL (≈ 2.43 µM)

O=[N+]([O-])/N=C1\NCCN1Cc1ccc(Cl)nc1 [IMIDACLOPRID]
LC95 (Diaphorina citri [1]): 1.84 µg/mL (≈ 7.2 µM)
LC50 (Diaphorina citri [1]): 0.4 µg/mL (≈ 1.56 µM)
LC95 (Diaphorina citri [2]): 1.09 µg/mL (≈ 4.26 µM)
LC50 (Diaphorina citri [2]): 0.18 µg/mL (≈ 0.704 µM)
LC95 (Diaphorina citri [3]): 1.59 µg/mL (≈ 6.22 µM)
LC50 (Diaphorina citri [3]): 0.41 µg/mL (≈ 1.6 µM)
